This passage reports ring closure, isolated yield and EC50 results from US12324802B2, “Modulators of cystic fibrosis transmembrane conductance regulator” (Vertex Pharmaceuticals Incorporated, priority 2020, dated 2025).

Read-outs that look alike come from different tables or passages of the source.

Series [1] has as its target T1, CFTR (F508del/MF-HBE cells) (Homo sapiens, UniProt P13569, DEL508-508).
T1 construct: human bronchial epithelial (HBE) cells derived from CF subjects heterozygous for F508del and a minimal function CFTR mutation; endogenous in cells; host or cells: primary human bronchial epithelial cells from CF subjects (F508del/MF genotype)
The series is described as follows: Ussing chamber assay of CFTR-mediated short-circuit currents (identification of potentiator compounds). It is filed as cell-based. Conditions: CFTR-mediated ISC in F508del/MF-HBE cells; incubated 18-24 hours at 37° C. with 10 μM (14S)-8-[3-(2-{dispiro[2.0.2.1]heptan-7-yl}ethoxy)-1H-pyrazol-1-yl]-...-2,2,4-trione, 20% human serum. In short, it runs like this:
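F508del/minimal-function HBE cultures grown at air-liquid interface were incubated for 18–24 h at 37 °C with potentiator plus 10 μM corrector, in 20% human serum, and compounds stayed present during recording. Transepithelial ISC was recorded at 0 mV and 37 °C with 30 μM apical amiloride. CFTR current was taken as the peak response to 20 μM forskolin minus the steady state after a 20 μM inhibitor cocktail.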

T1 sequence (P13569 with tags, fused parts or gaps DEL508-508): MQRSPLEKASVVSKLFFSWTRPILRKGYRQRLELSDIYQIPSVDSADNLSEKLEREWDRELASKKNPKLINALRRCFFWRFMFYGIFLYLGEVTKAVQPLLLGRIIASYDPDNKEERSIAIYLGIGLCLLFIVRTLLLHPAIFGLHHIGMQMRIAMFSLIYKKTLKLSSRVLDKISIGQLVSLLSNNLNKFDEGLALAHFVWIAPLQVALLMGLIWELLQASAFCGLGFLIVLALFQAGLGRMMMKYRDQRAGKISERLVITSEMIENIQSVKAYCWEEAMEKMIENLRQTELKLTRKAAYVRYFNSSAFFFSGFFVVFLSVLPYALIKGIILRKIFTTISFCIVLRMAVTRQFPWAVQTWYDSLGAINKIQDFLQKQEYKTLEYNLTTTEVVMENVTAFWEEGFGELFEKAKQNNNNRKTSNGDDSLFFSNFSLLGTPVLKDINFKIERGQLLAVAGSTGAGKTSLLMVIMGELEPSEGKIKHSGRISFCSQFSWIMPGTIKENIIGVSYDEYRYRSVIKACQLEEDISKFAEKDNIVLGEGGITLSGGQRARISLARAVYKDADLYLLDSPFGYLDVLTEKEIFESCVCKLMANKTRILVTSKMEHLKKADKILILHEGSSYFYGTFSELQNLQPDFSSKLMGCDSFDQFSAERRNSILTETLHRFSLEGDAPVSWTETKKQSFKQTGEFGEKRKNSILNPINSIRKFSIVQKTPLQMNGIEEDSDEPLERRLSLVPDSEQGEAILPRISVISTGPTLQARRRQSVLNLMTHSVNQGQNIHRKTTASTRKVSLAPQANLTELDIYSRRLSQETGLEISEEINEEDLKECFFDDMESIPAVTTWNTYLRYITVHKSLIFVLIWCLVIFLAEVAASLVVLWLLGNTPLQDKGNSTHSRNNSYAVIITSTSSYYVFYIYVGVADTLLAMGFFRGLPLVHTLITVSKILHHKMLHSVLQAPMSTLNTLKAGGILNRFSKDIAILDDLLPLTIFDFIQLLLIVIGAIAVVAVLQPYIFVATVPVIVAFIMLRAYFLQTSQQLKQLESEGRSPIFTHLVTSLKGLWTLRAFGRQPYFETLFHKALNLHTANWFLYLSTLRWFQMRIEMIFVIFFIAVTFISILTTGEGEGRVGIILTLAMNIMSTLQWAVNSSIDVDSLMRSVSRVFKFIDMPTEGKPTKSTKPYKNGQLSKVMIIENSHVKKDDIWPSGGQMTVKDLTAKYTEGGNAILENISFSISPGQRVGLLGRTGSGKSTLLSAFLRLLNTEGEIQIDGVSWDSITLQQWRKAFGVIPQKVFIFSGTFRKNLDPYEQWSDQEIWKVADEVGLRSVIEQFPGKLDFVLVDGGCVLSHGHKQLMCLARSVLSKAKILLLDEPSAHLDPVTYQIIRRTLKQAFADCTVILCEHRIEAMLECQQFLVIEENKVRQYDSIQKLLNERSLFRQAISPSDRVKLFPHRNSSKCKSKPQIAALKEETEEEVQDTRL

As to “(6R)-6-benzyloxy-17-(tert-butoxycarbonylamino)-6,15-bis(trifluoromethyl)-19-oxa-3,4,13,18-tetrazatricyclo[12.3.1.12,5]nonadeca-1(17),2,4,9,14(18),15-hexaene-12-carboxylic acid (E/Z mixture)”, the ring closure, isolated yield (rcm bond, 14-membered ring, Zhan catalyst-1B, then LiOH, DCE, 0.99 mM, 75.0 °C, 2 steps) was determined as 21%.
Molecule `CC(C)(C)OC(=O)Nc1cc(C(F)(F)F)c2nc1-c1nnc(o1)C(OCc1ccccc1)(C(F)(F)F)CCC=CCCC1CCCN21` (mixture of isomers) displayed a ring closure, isolated yield (from C=CCCC1CCCN1c1nc(-c2nnc(C(CCC=C)(OCc3ccccc3)C(F)(F)F)o2)c(NC(=O)OC(C)(C)C)cc1C(F)(F)F, rcm bond, 15-membered ring, Zhan-1B (24 mol%), DCE, 4.89 mM, 70.0 °C, 16.0 h) of 53%.
Regarding `CC(C)C1CCC=CC[C@](OCc2ccccc2)(C(F)(F)F)C2=NN=C(O2)c2nc(c(C(F)(F)F)cc2[N+](=O)[O-])N1` (mixture of isomers), the ring closure, isolated yield (from C=CCCC(Nc1nc(-c2nnc([C@@](CC=C)(OCc3ccccc3)C(F)(F)F)o2)c([N+](=O)[O-])cc1C(F)(F)F)C(C)C, rcm bond, 14-membered ring, Zhan catalyst-1B, DCE, 15.4 mM, 70.0 °C) was 47%.
For the molecule `COc1cc2nc(c1[N+](=O)[O-])-c1nnc(o1)C(OCc1ccccc1)(C(F)(F)F)CCC=CC[C@@H]1CCCN21` (mixture of isomers), the ring closure, isolated yield (from C=CCCC(OCc1ccccc1)(c1nnc(-c2nc(N3CCC[C@H]3CC=C)cc(OC)c2[N+](=O)[O-])o1)C(F)(F)F, rcm bond, 14-membered ring, Zhan catalyst-1B, DCE, 6.85 mM, 70.0 °C, 5.0 h) came to 29%.
Turning to `O=[N+]([O-])c1cc(C(F)(F)F)c2nc1-c1nnc(o1)[C@@](OCc1ccccc1)(C(F)(F)F)CCC=CCC1(CCC1)N2` (mixture of isomers), the ring closure, isolated yield (from C=CCC[C@@](OCc1ccccc1)(c1nnc(-c2nc(NC3(CC=C)CCC3)c(C(F)(F)F)cc2[N+](=O)[O-])o1)C(F)(F)F, rcm bond, 14-membered ring, Zhan catalyst-1B, DCE, 3.27 mM, 85.0 °C, 5.0 h) amounted to 68%.
Regarding `O=[N+]([O-])c1cc(C(F)(F)F)c2nc1-c1nnc(o1)[C@@](OCc1ccccc1)(C(F)(F)F)CCC=CCC1(CCOCC1)N2` (mixture of isomers), under “from C=CCC[C@@](OCc1ccccc1)(c1nnc(-c2nc(NC3(CC=C)CCOCC3)c(C(F)(F)F)cc2[N+](=O)[O-])o1)C(F)(F)F, rcm bond, 14-membered ring, Zhan catalyst-1B, DCE, 3.13 mM, 60.0 °C, 3.75 h”, the ring closure, isolated yield was 80%.
`CC1(C)CC2CC=Cc3ccc(F)c(c3)C(O)(C(F)(F)F)C3=NN=C(O3)c3nc(c(C(F)(F)F)cc3N(C(=O)OC(C)(C)C)C(=O)OC(C)(C)C)N2C1` (mixture of isomers) gave a ring closure, isolated yield (from C=CCC1CC(C)(C)CN1c1nc(-c2nnc(C(O)(c3cc(I)ccc3F)C(F)(F)F)o2)c(N(C(=O)OC(C)(C)C)C(=O)OC(C)(C)C)cc1C(F)(F)F, cc_pd bond, 15-membered ring, Pd(OAc)2/P(o-tol)3/Et3N, MeCN, 7.06 mM, 80.0 °C, 22.0 h) of 58%.
Turning to `CC(C)(C)OC(=O)Nc1cc(C(F)(F)F)c2nc1-c1nnc(o1)[C@@](O)(C(F)(F)F)c1cc(ccc1F)C=CC[C@@H]1CCCN21` (mixture of isomers), the ring closure, isolated yield (from C=CC[C@@H]1CCCN1c1nc(-c2nnc([C@](O)(c3cc(I)ccc3F)C(F)(F)F)o2)c(NC(=O)OC(C)(C)C)cc1C(F)(F)F, cc_pd bond, 15-membered ring, Pd(OAc)2/P(o-tol)3/Et3N, MeCN, 9.5 mM, 80.0 °C, 22.0 h) is 58%.
Turning to `CCOC(=O)C1CC=CCCC(OCc2ccccc2)(C(F)(F)F)C2=NN=C(O2)c2nc(c(C(F)(F)F)cc2[N+](=O)[O-])N1` (mixture of isomers), the ring closure, isolated yield (from C=CCCC(OCc1ccccc1)(c1nnc(-c2nc(NC(CC=C)C(=O)OCC)c(C(F)(F)F)cc2[N+](=O)[O-])o1)C(F)(F)F, rcm bond, 14-membered ring, Zhan catalyst-1B, DCE, 3.41 mM, 75.0 °C, 2.0 h) was found to be 36%.
`CC(C)(C)OC(=O)Nc1cc(C(F)(F)F)c2nc1-c1nnc(o1)C(OCc1ccccc1)(C(F)(F)F)CCC=CCC1CCCN21` (mixture of isomers) had a ring closure, isolated yield (from C=CCCC(OCc1ccccc1)(c1nnc(-c2nc(N3CCCC3CC=C)c(C(F)(F)F)cc2NC(=O)OC(C)(C)C)o1)C(F)(F)F, rcm bond, 14-membered ring, Grubbs II (21 mol%), DCE, 15.2 mM, 80.0 °C, 0.75 h) of 84%.
In turn, `O=[N+]([O-])c1cc(C(F)(F)F)c2nc1-c1nnc(o1)-c1c(cccc1OCc1ccccc1)CC=CC[C@@H]1CCCN21` (mixture of isomers) had a ring closure, isolated yield (from C=CCc1cccc(OCc2ccccc2)c1-c1nnc(-c2nc(N3CCC[C@H]3CC=C)c(C(F)(F)F)cc2[N+](=O)[O-])o1, rcm bond, 14-membered ring, Zhan-1B, DCE, 7.24 mM, 70.0 °C, 5.0 h) of 26%.
In turn, `CN1CCC=CCCC(OCc2ccccc2)(C(F)(F)F)C2=NN=C(O2)c2nc1c(C(F)(F)F)cc2NC(=O)OC(C)(C)C` (mixture of isomers) displayed a ring closure, isolated yield (from C=CCCN(C)c1nc(-c2nnc(C(CCC=C)(OCc3ccccc3)C(F)(F)F)o2)c(NC(=O)OC(C)(C)C)cc1C(F)(F)F, rcm bond, 14-membered ring, Zhan-1B (15 mol%), DCE, 6.34 mM, 70.0 °C, 2.0 h) of 76%.
Consider `CC(C)(C)OC(=O)Nc1cc(C(F)(F)F)c2nc1-c1nnc(o1)C(OCc1ccccc1)(C(F)(F)F)CCC=CC[C@@H]1CCCN21` (mixture of isomers), for which the ring closure, isolated yield (from C=CCCC(OCc1ccccc1)(c1nnc(-c2nc(N3CCC[C@H]3CC=C)c(C(F)(F)F)cc2NC(=O)OC(C)(C)C)o1)C(F)(F)F, rcm bond, 14-membered ring, Zhan-1B (two charges), DCE, 7.07 mM, 70.0 °C, 20.0 h) worked out at 61%.
Under “from C=CCC[C@@](OCc1ccccc1)(c1nnc(-c2nc(NC(C)(CC=C)COCc3ccccc3)c(C(F)(F)F)cc2[N+](=O)[O-])o1)C(F)(F)F, rcm bond, 14-membered ring, Zhan catalyst-1B, DCE, 2.83 mM, 60.0 °C, 3.17 h”, `CC1(COCc2ccccc2)CC=CCC[C@](OCc2ccccc2)(C(F)(F)F)C2=NN=C(O2)c2nc(c(C(F)(F)F)cc2[N+](=O)[O-])N1` (mixture of isomers) registered a ring closure, isolated yield of 75%.
The molecule `O=[N+]([O-])c1cc(C(F)(F)F)c2nc1-c1nnc(o1)[C@@](OCc1ccccc1)(C(F)(F)F)CC=CCCC(C1CC1)N2` (stereo partly drawn) showed a ring closure, isolated yield (from C=CCCC(Nc1nc(-c2nnc([C@@](CC=C)(OCc3ccccc3)C(F)(F)F)o2)c([N+](=O)[O-])cc1C(F)(F)F)C1CC1, rcm bond, 14-membered ring, Zhan catalyst-1B, DCE, 2.49 mM, 66.0 °C, 1.6 h) of 76%.
Consider `CCOC(=O)C1CCC=CCC(OCc2ccccc2)(C(F)(F)F)C2=NN=C(O2)c2nc(c(C(F)(F)F)cc2[N+](=O)[O-])N1` (mixture of isomers), for which the ring closure, isolated yield (from C=CCCC(Nc1nc(-c2nnc(C(CC=C)(OCc3ccccc3)C(F)(F)F)o2)c([N+](=O)[O-])cc1C(F)(F)F)C(=O)OCC, rcm bond, 14-membered ring, Zhan-1B, DCE, 2.96 mM, 75.0 °C, 2.0 h) was found to be 82%.
In the case of `O=[N+]([O-])c1cc(C(F)(F)F)c2nc1-c1nnc(o1)C(OCc1ccccc1)(C(F)(F)F)CCC=CCC(CO)N2` (stereo not drawn), the ring closure, isolated yield (from C=CCCC(OCc1ccccc1)(c1nnc(-c2nc(NC(CO)CC=C)c(C(F)(F)F)cc2[N+](=O)[O-])o1)C(F)(F)F, rcm bond, 14-membered ring, Zhan-1B, DCE, 3.01 mM, 70.0 °C, 2.0 h) is 32%.
Molecule `COCC1CCC=CC[C@](OCc2ccccc2)(C(F)(F)F)C2=NN=C(O2)c2nc(c(C(F)(F)F)cc2[N+](=O)[O-])N1` (mixture of isomers) had a ring closure, isolated yield (from C=CCCC(COC)Nc1nc(-c2nnc([C@@](CC=C)(OCc3ccccc3)C(F)(F)F)o2)c([N+](=O)[O-])cc1C(F)(F)F, rcm bond, 14-membered ring, Zhan catalyst-1B, DCE, 3.15 mM, 60.0 °C, 5.75 h) of 48%.
Under “from C=CCC[C@@](OCc1ccccc1)(c1nnc(-c2nc(NC(CC=C)Cc3ccccc3)c(C(F)(F)F)cc2[N+](=O)[O-])o1)C(F)(F)F, rcm bond, 14-membered ring, Zhan catalyst-1B, DCE, 9.18 mM, 75.0 °C, 2.0 h”, `O=[N+]([O-])c1cc(C(F)(F)F)c2nc1-c1nnc(o1)[C@@](OCc1ccccc1)(C(F)(F)F)CCC=CCC(Cc1ccccc1)N2` (mixture of isomers) registered a ring closure, isolated yield of 19%.
`Nc1cc(C(F)(F)F)c2nc1-c1nnc(o1)C(O)(C(F)(F)F)CCCCCC(CO)N2` (single isomer, unassigned) [Compound 104, 17-amino-12-(hydroxymethyl)-6,15-bis(trifluoromethyl)-19-oxa-3,4,13,18-tetrazatricyclo[12.3.1.12,5]nonadeca-1(18),2,4,14,16-pentaen-6-ol]: the EC50 – broadly, the concentration giving half of the maximal effect – in series [1] is below 500 nM.
As to `CN1CCCCCCC(O)(c2ccccc2)C2=NN=C(O2)c2nc1c(C(F)(F)F)cc2N` (single isomer, unassigned) [Compound 76, 17-amino-13-methyl-6-phenyl-15-(trifluoromethyl)-19-oxa-3,4,13,18-tetrazatricyclo[12.3.1.12,5]nonadeca-1(18),2,4,14,16-pentaen-6-ol], the EC50 in series [1] is below 500 nM.
`Nc1cc(C(F)(F)F)c2nc1-c1nnc(o1)C(O)(C(F)(F)F)c1cc(ccn1)CCC[C@@H]1CCCN21` (single isomer, unassigned) [Compound 86]: the EC50 in series [1] was above 1000 nM.
As for `CNC(=O)CN1CCCCCCC(O)(C(F)(F)F)C2=NN=C(O2)c2nc1c(C(F)(F)F)cc2N` (single isomer, unassigned) [Compound 48, 2-[17-amino-6-hydroxy-6,15-bis(trifluoromethyl)-19-oxa-3,4,13,18-tetrazatricyclo[12.3.1.12,5]nonadeca-1(18),2,4,14,16-pentaen-13-yl]-N-methyl-acetamide], the EC50 in series [1] is below 500 nM.
Still for that read-out and setting: as for `Nc1cc(C(F)(F)F)c2nc1-c1nnc(o1)[C@@](O)(C(F)(F)F)CCCCCC(C1CC1)N2` (single isomer, unassigned) [Compound 192], the figure is below 500 nM.
